In US20030162777A1, “Novel N-acylated heterocycles” (Recordati S.A., priority 2001, published 2003):

Columns and labels:
[1] = target: T1, human 5HT1A-serotonergic receptor (Homo sapiens, UniProt P08908); test: Radioligand binding to recombinant 5-HT1A receptors; settings: [3H]8-OH-DPAT 1 nM, membranes of HeLa cells with human 5-HT1A receptor; Ki from IC50 by Cheng & Prusoff; read-out: Binding affinity for 5HT1A receptors, Ki
T1 construct: expressed in transfected cells; host or cells: HeLa (human cell line), stably transfected; cell membranes used
T1 sequence (P08908 1-422): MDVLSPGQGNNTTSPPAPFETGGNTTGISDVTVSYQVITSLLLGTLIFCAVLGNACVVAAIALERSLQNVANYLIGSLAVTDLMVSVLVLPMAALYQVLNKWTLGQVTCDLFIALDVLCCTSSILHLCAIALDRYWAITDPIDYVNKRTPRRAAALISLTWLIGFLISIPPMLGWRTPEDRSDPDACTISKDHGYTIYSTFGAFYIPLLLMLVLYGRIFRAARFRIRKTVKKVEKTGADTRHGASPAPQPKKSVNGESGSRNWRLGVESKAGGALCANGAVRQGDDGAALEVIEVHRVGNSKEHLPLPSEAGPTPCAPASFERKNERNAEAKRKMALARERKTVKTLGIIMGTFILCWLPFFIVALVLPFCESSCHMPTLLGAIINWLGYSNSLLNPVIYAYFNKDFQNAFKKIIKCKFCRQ
Method in brief: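 Membranes from HeLa cells stably expressing human 5-HT1A incubated 30 min at 30 °C with 1 nM [3H]8-OH-DPAT and compound in 50 mM Tris-HCl pH 7.4, 2.5 mM MgCl2, […] pargyline. Nonspecific binding defined with 10 μM 5-HT; filtration readout, IC50 converted to Ki via Cheng–Prusoff.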

[2] = test system: anaesthetised rats; test: Effects on rhythmic bladder-voiding contractions induced by bladder filling in anaesthetised rats; assay type: in vivo, rat; settings: intravenous administration, urethane-anaesthetised rats
Experimental: Female Sprague-Dawley rats weighing 225-275 g (Crl: CDo Br, Charles River Italia) were used. The animals were housed with free access to food and water and maintained on a forced 12-hour alternating light-dark cycle at 22-24° C. for at least one week, except during the experiment. The activity on rhythmic bladder voiding contractions was evaluated according to the method of Dray (Dray J., Pharmacol. Methods, 13:157, 1985), with some modifications as in Guarneri (Guarneri, Pharmacol. Res. 27:173, 1993). Briefly, the rats were anaesthetised by subcutaneous injection of 1.25 g/kg (5 ml/kg) urethane, after which the urinary bladder was catheterised via the urethra using PE 50 polyethylene tubing filled with physiological saline. The catheter was tied in place with a ligature around the external urethral orifice and was connected to conventional pressure transducers (Statham P23 ID/P23 XL). […] The bladder was then filled via the recording catheter by incremental volumes of warm (37° C.) saline until reflex bladder-voiding contractions occurred (usually 0.8-1.5 ml). For intravenous injection of bioactive compounds, PE 50 polyethylene tubing filled with physiological saline was inserted into the jugular vein.
From the cystometrogram, the number of contractions recorded 15 minutes before (basal values) and after treatment, as well as the mean amplitude of these contractions (mean height of the peaks in mmHg), was evaluated.
Since most compounds produced an effect that was relatively rapid in onset and led to a complete cessation of bladder contractions, bioactivity was conveniently estimated by measuring the duration of bladder quiescence (i.e. the length of the time during which no contractions occurred). The number of tested animals showing a reduction in the number of contractions higher than 30% of that observed in the basal period was recorded too.
The extrapolated doses which induced a reduction in the number of contractions greater than 30% in 50% of the treated rats (ED50) were evaluated by the method of Bliss (Bliss C. I., Quart J. Pharm. Pharmacol. 11, 192-216, 1938).

`O=C(C1CCCCC1)N1c2ccccc2CCC1CN1CCN(c2cccc3[nH]ccc23)CC1` (racemic) [Example 1, (±)1-(1-cyclohexanecarbonyl-1,2,3,4-tetrahydroquinoline-2-ylmethyl)-4-(4-indolyl)piperazine] was tested, and the Ki [1] was 3.3 nM, the ED50 ([2]; Rattus norvegicus, read-out: ED50 frequency (extrapolated dose inducing a reduction of the number of contractions >30% in 50% of treated rats)) was 0.064 mg/kg and the “ED10 min (extrapolated dose inducing 10 minutes of disappearance of the contractions)” value [2] was 107 µg/kg.
